Measured values as given in patent publication US10961231B2, “NTCP inhibitors” (National Institute of Biological Sciences, Beijing, priority 2018, dated 2021).
pIC50: −log10 of the molar value. Where two headings read alike, the source gives them in different places.

Target: T1, NTCP (Homo sapiens, UniProt Q14973)
T1 sequence (Q14973 1-349): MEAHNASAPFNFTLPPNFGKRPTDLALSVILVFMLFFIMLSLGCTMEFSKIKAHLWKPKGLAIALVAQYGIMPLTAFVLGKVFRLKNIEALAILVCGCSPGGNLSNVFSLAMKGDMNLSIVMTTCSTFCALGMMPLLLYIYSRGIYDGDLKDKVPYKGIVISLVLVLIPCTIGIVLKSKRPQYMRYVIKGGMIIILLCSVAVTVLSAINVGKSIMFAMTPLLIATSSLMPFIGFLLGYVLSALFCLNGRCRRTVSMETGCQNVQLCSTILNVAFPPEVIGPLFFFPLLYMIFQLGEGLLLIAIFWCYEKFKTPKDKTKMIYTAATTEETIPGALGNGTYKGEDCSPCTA
Experiment: [3H]-TCA uptake assay (NTCP inhibition)
Format: cell-based
How it was run: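 Read-out is liquid scintillation counting of Triton X-100 lysates after 15 min, 37° C uptake of 1 μM [3H]-taurocholate in Na+ Ringer's buffer (145 mM Na). Beforehand, PTH and HepG2-NTCP cells had 24 h in PMM for NTCP induction and 2 h of compound or DMSO treatment.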

[1] = IC50, given as a range, marked * (asterisk not explained)
[2] = given as a range, assay not given
[3] = given as a range, marked * (asterisk not explained)
[4] = IC50, given as a range, assay not given

CCC1NC(=O)C(C2OC(SCc3cc(F)c(Cl)cc3Cl)CC2C)N(C)C(=O)C(C(C)C)N(C)C(=O)C(CC(C)C)N(C)C(=O)C(CC(C)C)N(C)C(=O)C(C)NC(=O)C(C)NC(=O)C(CC(C)C)N(C)C(=O)C(C(C)C)NC(=O)C(CC(C)C)N(C)C(=O)CN(C)C1=O (stereo not shown) [Compound 101A-s]
pIC50 [1]: 4.00 to 6.00

CCOc1ccc(SC2CC(C)C(C3C(=O)NC(CC)C(=O)N(C)CC(=O)N(C)C(CC(C)C)C(=O)NC(C(C)C)C(=O)N(C)C(CC(C)C)C(=O)NC(C)C(=O)NC(C)C(=O)N(C)C(CC(C)C)C(=O)N(C)C(CC(C)C)C(=O)N(C)C(C(C)C)C(=O)N3C)O2)cc1 [Compound 27A, [2-((2R,3R)-5-(4-ethoxyphenylthio)-3-methyltetrahydrofuran-2-yl)-2-(methylamino)acetic acid]^1-cyclosporin A]
IC50 [2]: 0.001 to 1 µM

CCC1NC(=O)C(C2OC(Sc3ccc(C)cc3)CC2C)N(C)C(=O)C(C(C)C)N(C)C(=O)C(CC(C)C)N(C)C(=O)C(CC(C)C)N(C)C(=O)C(C)NC(=O)C(C)NC(=O)C(CC(C)C)N(C)C(=O)C(C(C)C)NC(=O)C(CC(C)C)N(C)C(=O)CN(C)C1=O [Compound 2A, [2-((2R,3R)-3-methyl-5-(p-tolylthio)tetrahydrofuran-2-yl)-2-(methylamino)acetic acid]^1-cyclosporin A]
IC50 [2]: 0.001 to 1 µM

CCC1NC(=O)C(C2OC(SC(C)c3ccccc3)CC2C)N(C)C(=O)C(C(C)C)N(C)C(=O)C(CC(C)C)N(C)C(=O)C(CC(C)C)N(C)C(=O)C(C)NC(=O)C(C)NC(=O)C(CC(C)C)N(C)C(=O)C(C(C)C)NC(=O)C(CC(C)C)N(C)C(=O)CN(C)C1=O (stereo not shown) [Compound 78A-s]
pIC50 [1]: 4.00 to 6.00

CCC1NC(=O)C(C2OC(Oc3cc(OC)cc(OCc4ccc(F)cc4)c3)CC2C)N(C)C(=O)C(C(C)C)N(C)C(=O)C(CC(C)C)N(C)C(=O)C(CC(C)C)N(C)C(=O)C(C)NC(=O)C(C)NC(=O)C(CC(C)C)N(C)C(=O)C(C(C)C)NC(=O)C(CC(C)C)N(C)C(=O)CN(C)C1=O (stereo not shown) [Compound 60A-o]
pIC50 [3]: 4.00 to 6.00

CCC1NC(=O)C(C2OC(OCc3ccc(-n4cccn4)cc3)CC2C)N(C)C(=O)C(C(C)C)N(C)C(=O)C(CC(C)C)N(C)C(=O)C(CC(C)C)N(C)C(=O)C(C)NC(=O)C(C)NC(=O)C(CC(C)C)N(C)C(=O)C(C(C)C)NC(=O)C(CC(C)C)N(C)C(=O)CN(C)C1=O [Compound 77A, [2-((2R,3R)-5-(4-(1H-pyrazol-1-yl)benzyloxy)-3-methyltetrahydrofuran-2-yl)-2-(methylamino)acetic acid]^1-cyclosporin A]
pIC50 [4]: 5.00 to 6.00

CCC1NC(=O)C(C2OC(Sc3c(OC)cccc3OC)CC2C)N(C)C(=O)C(C(C)C)N(C)C(=O)C(CC(C)C)N(C)C(=O)C(CC(C)C)N(C)C(=O)C(C)NC(=O)C(C)NC(=O)C(CC(C)C)N(C)C(=O)C(C(C)C)NC(=O)C(CC(C)C)N(C)C(=O)CN(C)C1=O [Compound 36A, [2-((2R,3R)-5-(2,6-dimethoxyphenylthio)-3-methyltetrahydrofuran-2-yl)-2-(methylamino)acetic acid]^1-cyclosporin A]
pIC50 [4]: 5.00 to 6.00

CCC1NC(=O)C(C2OC(Oc3cccc(OCc4ccc(-n5cccn5)cc4)c3)CC2C)N(C)C(=O)C(C(C)C)N(C)C(=O)C(CC(C)C)N(C)C(=O)C(CC(C)C)N(C)C(=O)C(C)NC(=O)C(C)NC(=O)C(CC(C)C)N(C)C(=O)C(C(C)C)NC(=O)C(CC(C)C)N(C)C(=O)CN(C)C1=O (stereo not shown) [Compound 17A-o]
pIC50 [3]: 4.00 to 6.00

CCC1NC(=O)C(C2OC(Sc3cc(Cl)cc(OCc4ccc(F)cc4)c3)CC2C)N(C)C(=O)C(C(C)C)N(C)C(=O)C(CC(C)C)N(C)C(=O)C(CC(C)C)N(C)C(=O)C(C)NC(=O)C(C)NC(=O)C(CC(C)C)N(C)C(=O)C(C(C)C)NC(=O)C(CC(C)C)N(C)C(=O)CN(C)C1=O [Compound 61A, [2-((2R,3R)-5-(3-chloro-5-(4-fluorobenzyloxy)phenylthio)-3-methyltetrahydrofuran-2-yl)-2-(methylamino)acetic acid] 1-cyclosporin A]
pIC50 (given as a range, assay not given, read-out: IC50): 6.00 to 9.00

CCC1NC(=O)C(C2OC(SCc3cccc(S(=O)(=O)NCC(C)C)c3)CC2C)N(C)C(=O)C(C(C)C)N(C)C(=O)C(CC(C)C)N(C)C(=O)C(CC(C)C)N(C)C(=O)C(C)NC(=O)C(C)NC(=O)C(CC(C)C)N(C)C(=O)C(C(C)C)NC(=O)C(CC(C)C)N(C)C(=O)CN(C)C1=O (stereo not shown) [Compound 76A-s]
pIC50 [1]: 4.00 to 6.00

CCC1NC(=O)C(C2OC(Oc3cccc(N(C)Cc4ccccc4)c3)CC2C)N(C)C(=O)C(C(C)C)N(C)C(=O)C(CC(C)C)N(C)C(=O)C(CC(C)C)N(C)C(=O)C(C)NC(=O)C(C)NC(=O)C(CC(C)C)N(C)C(=O)C(C(C)C)NC(=O)C(CC(C)C)N(C)C(=O)CN(C)C1=O (stereo not shown) [Compound 68-o]
pIC50 [1]: 4.00 to 6.00

CCC1NC(=O)C(C2OC(Sc3cc(Cl)cc(OCC4CCOCC4)c3)CC2C)N(C)C(=O)C(C(C)C)N(C)C(=O)C(CC(C)C)N(C)C(=O)C(CC(C)C)N(C)C(=O)C(C)NC(=O)C(C)NC(=O)C(CC(C)C)N(C)C(=O)C(C(C)C)NC(=O)C(CC(C)C)N(C)C(=O)CN(C)C1=O (stereo not shown) [Compound 67]
pIC50 [1]: 4.00 to 6.00

CCC1NC(=O)C(C2OC(SCc3ccc4c(c3)OCO4)CC2C)N(C)C(=O)C(C(C)C)N(C)C(=O)C(CC(C)C)N(C)C(=O)C(CC(C)C)N(C)C(=O)C(C)NC(=O)C(C)NC(=O)C(CC(C)C)N(C)C(=O)C(C(C)C)NC(=O)C(CC(C)C)N(C)C(=O)CN(C)C1=O (stereo not shown) [Compound 100A-s]
pIC50 [1]: 4.00 to 6.00

CCC1NC(=O)C(C2OC(SCc3cc(Cl)cc(Cl)c3)CC2C)N(C)C(=O)C(C(C)C)N(C)C(=O)C(CC(C)C)N(C)C(=O)C(CC(C)C)N(C)C(=O)C(C)NC(=O)C(C)NC(=O)C(CC(C)C)N(C)C(=O)C(C(C)C)NC(=O)C(CC(C)C)N(C)C(=O)CN(C)C1=O (stereo not shown) [Compound 91B-s]
pIC50 [1]: 4.00 to 6.00

CCC1NC(=O)C(C2OC(OC(C)c3ccc(Cl)c(Cl)c3)CC2C)N(C)C(=O)C(C(C)C)N(C)C(=O)C(CC(C)C)N(C)C(=O)C(CC(C)C)N(C)C(=O)C(C)NC(=O)C(C)NC(=O)C(CC(C)C)N(C)C(=O)C(C(C)C)NC(=O)C(CC(C)C)N(C)C(=O)CN(C)C1=O (single isomer, unassigned) [Compound 97A]
IC50 [2]: 0.001 to 1 µM

CCC1NC(=O)C(C2OC(Oc3ccc(N(C)C)cc3)CC2C)N(C)C(=O)C(C(C)C)N(C)C(=O)C(CC(C)C)N(C)C(=O)C(CC(C)C)N(C)C(=O)C(C)NC(=O)C(C)NC(=O)C(CC(C)C)N(C)C(=O)C(C(C)C)NC(=O)C(CC(C)C)N(C)C(=O)CN(C)C1=O (stereo not shown) [Compound 51A-o]
pIC50 [1]: 4.00 to 6.00

CCC1NC(=O)C(C2OC(Oc3cccc(OC(C)C)c3)CC2C)N(C)C(=O)C(C(C)C)N(C)C(=O)C(CC(C)C)N(C)C(=O)C(CC(C)C)N(C)C(=O)C(C)NC(=O)C(C)NC(=O)C(CC(C)C)N(C)C(=O)C(C(C)C)NC(=O)C(CC(C)C)N(C)C(=O)CN(C)C1=O (stereo not shown) [Compound 30A-6]
pIC50 [1]: 4.00 to 6.00

CCC1NC(=O)C(C2OC(Oc3cccc(OCc4ccc(F)cc4)c3)CC2C)N(C)C(=O)C(C(C)C)N(C)C(=O)C(CC(C)C)N(C)C(=O)C(CC(C)C)N(C)C(=O)C(C)NC(=O)C(C)NC(=O)C(CC(C)C)N(C)C(=O)C(C(C)C)NC(=O)C(CC(C)C)N(C)C(=O)CN(C)C1=O (stereo not shown) [Compound 21A-o]
pIC50 [1]: 4.00 to 6.00

CCC1NC(=O)C(C2OC(Oc3cccc(OCC4CC4)c3)CC2C)N(C)C(=O)C(C(C)C)N(C)C(=O)C(CC(C)C)N(C)C(=O)C(CC(C)C)N(C)C(=O)C(C)NC(=O)C(C)NC(=O)C(CC(C)C)N(C)C(=O)C(C(C)C)NC(=O)C(CC(C)C)N(C)C(=O)CN(C)C1=O (stereo not shown) [Compound 32A-o]
pIC50 [1]: 4.00 to 6.00
